Laboratory results: ChEMBL document CHEMBL5678818, “Discovery of potent SOS1 inhibitors that block RAS activation via disruption of the RAS-SOS1 interaction” (Proc Natl Acad Sci U S A, 2019)

Key:
[1] = target: Tyrosine-protein kinase ABL2 (Homo sapiens) (UniProt P42684); test: Inhibition of ABL2 (unknown origin) assessed as residual activity at 1000 nM by KINOMEscan analysis relative to control
[2] = target: T1, Serine/threonine-protein kinase DCLK1 (Homo sapiens) (UniProt O15075); test: Inhibition of DCAMKL1 (unknown origin) assessed as residual activity at 1000 nM by KINOMEscan analysis relative to control
T1 sequence (whole entry): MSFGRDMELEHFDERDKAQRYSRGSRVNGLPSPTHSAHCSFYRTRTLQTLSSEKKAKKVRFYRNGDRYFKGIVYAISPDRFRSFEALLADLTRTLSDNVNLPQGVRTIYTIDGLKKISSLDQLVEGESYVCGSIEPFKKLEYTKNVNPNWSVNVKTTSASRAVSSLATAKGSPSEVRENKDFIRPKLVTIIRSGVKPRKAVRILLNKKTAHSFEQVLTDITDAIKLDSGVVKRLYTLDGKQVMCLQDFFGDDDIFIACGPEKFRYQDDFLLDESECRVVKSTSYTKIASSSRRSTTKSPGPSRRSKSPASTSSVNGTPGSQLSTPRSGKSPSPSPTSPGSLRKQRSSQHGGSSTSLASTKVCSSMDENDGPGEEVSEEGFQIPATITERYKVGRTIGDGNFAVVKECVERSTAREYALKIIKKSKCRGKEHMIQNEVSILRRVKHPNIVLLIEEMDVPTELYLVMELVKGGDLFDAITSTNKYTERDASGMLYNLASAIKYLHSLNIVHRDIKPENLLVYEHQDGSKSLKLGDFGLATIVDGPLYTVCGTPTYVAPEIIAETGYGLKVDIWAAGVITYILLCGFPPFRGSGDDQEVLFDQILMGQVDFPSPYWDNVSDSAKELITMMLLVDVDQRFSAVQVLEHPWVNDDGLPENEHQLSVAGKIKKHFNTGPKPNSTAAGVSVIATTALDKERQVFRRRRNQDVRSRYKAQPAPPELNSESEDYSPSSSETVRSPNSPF

[3] = tested on: Epidermal growth factor receptor (Homo sapiens), P00533 [UNDEFINED MUTATION]; test: Inhibition of EGFR S752-I759del mutant (unknown origin) assessed as residual activity at 1000 nM by KINOMEscan analysis relative to control
[4] = target: T2, Dual specificity mitogen-activated protein kinase kinase 3 (Homo sapiens) (UniProt P46734); test: Inhibition of MEK3 (unknown origin) assessed as residual activity at 1000 nM by KINOMEscan analysis relative to control
T2 sequence (whole entry): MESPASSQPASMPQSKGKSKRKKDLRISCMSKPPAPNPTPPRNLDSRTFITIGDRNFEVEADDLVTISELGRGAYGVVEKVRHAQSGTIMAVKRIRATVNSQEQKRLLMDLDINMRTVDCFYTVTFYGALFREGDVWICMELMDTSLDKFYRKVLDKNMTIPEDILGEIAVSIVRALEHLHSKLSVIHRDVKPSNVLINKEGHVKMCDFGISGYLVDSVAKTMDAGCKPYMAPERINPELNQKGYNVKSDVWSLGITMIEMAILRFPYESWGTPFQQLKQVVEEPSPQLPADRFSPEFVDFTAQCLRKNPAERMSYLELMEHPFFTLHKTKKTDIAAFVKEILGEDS

[5] = target: Mitogen-activated protein kinase kinase kinase 9 (Homo sapiens) (UniProt P80192); test: Inhibition of MLK1 (unknown origin) assessed as residual activity at 1000 nM by KINOMEscan analysis relative to control
[6] = target: T3, Receptor-interacting serine/threonine-protein kinase 1 (Homo sapiens) (UniProt Q13546); test: Inhibition of RIPK1 (unknown origin) assessed as residual activity at 1000 nM by KINOMEscan analysis relative to control
T3 sequence (whole entry): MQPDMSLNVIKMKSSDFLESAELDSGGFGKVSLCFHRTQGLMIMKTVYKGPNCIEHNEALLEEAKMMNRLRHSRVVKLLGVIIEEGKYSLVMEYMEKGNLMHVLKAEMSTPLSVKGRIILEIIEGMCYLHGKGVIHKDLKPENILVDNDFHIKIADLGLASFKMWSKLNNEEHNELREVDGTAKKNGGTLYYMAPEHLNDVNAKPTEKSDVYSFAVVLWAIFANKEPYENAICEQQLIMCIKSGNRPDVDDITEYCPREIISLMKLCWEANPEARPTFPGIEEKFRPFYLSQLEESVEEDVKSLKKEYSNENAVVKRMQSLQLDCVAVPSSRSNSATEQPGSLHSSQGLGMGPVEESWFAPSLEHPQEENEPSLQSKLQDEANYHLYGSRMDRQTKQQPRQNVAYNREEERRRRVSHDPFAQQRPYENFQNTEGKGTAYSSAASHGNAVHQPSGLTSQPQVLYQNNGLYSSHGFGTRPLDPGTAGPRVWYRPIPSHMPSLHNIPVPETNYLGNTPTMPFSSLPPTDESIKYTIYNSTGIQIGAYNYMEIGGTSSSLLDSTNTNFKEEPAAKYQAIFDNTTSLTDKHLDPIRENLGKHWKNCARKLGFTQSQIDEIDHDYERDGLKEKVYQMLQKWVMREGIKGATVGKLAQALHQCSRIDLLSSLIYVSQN

[7] = target: T4, Uncharacterized serine/threonine-protein kinase SBK3 (Homo sapiens) (UniProt P0C264); test: Inhibition of SgK110 (unknown origin) assessed as residual activity at 1000 nM by KINOMEscan analysis relative to control
T4 sequence (whole entry): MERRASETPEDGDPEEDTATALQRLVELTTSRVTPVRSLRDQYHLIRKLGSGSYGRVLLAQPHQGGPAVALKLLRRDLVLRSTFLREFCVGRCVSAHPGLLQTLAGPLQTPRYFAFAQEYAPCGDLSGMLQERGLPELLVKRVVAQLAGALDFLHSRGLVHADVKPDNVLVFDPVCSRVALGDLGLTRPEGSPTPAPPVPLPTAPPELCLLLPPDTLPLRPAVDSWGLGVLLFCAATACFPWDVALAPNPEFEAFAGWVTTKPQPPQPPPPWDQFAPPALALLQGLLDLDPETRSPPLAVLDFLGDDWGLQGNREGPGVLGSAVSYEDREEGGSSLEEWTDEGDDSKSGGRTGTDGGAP

Chain of Tyrosine-protein kinase ABL2 (Homo sapiens) (P42684 whole entry): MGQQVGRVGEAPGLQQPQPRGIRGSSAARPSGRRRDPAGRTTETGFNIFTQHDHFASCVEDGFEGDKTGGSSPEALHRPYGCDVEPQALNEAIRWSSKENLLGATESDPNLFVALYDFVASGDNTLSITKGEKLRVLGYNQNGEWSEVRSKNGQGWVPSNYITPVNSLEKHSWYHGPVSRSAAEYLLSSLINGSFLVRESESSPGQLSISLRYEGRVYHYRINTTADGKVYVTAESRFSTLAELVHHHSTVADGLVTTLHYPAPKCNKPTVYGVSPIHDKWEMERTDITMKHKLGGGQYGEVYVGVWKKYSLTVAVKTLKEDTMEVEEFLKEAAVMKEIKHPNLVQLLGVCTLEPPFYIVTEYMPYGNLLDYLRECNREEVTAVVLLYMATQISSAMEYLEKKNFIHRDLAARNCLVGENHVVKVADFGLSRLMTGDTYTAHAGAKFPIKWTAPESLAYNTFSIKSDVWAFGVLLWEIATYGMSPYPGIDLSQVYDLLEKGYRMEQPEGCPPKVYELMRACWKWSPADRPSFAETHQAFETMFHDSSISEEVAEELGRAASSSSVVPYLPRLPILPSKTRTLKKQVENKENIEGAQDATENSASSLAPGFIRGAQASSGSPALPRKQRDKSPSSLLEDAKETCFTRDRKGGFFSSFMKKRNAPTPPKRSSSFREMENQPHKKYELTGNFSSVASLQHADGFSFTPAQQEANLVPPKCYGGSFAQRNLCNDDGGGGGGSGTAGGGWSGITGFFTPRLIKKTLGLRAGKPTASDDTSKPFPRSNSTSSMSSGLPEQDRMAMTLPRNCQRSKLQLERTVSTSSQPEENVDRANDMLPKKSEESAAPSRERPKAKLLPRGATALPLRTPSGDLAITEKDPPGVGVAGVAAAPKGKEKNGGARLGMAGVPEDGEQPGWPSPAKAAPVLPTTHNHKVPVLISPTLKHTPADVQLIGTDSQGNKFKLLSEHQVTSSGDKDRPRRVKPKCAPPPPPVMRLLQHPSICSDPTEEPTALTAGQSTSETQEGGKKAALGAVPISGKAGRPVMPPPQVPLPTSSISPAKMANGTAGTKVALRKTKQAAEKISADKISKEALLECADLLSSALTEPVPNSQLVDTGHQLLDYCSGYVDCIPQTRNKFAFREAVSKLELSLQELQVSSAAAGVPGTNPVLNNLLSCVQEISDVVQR
Chain of Epidermal growth factor receptor (Homo sapiens), P00533 [UNDEFINED MUTATION] (P00533 whole entry, looked up, stated change not applied): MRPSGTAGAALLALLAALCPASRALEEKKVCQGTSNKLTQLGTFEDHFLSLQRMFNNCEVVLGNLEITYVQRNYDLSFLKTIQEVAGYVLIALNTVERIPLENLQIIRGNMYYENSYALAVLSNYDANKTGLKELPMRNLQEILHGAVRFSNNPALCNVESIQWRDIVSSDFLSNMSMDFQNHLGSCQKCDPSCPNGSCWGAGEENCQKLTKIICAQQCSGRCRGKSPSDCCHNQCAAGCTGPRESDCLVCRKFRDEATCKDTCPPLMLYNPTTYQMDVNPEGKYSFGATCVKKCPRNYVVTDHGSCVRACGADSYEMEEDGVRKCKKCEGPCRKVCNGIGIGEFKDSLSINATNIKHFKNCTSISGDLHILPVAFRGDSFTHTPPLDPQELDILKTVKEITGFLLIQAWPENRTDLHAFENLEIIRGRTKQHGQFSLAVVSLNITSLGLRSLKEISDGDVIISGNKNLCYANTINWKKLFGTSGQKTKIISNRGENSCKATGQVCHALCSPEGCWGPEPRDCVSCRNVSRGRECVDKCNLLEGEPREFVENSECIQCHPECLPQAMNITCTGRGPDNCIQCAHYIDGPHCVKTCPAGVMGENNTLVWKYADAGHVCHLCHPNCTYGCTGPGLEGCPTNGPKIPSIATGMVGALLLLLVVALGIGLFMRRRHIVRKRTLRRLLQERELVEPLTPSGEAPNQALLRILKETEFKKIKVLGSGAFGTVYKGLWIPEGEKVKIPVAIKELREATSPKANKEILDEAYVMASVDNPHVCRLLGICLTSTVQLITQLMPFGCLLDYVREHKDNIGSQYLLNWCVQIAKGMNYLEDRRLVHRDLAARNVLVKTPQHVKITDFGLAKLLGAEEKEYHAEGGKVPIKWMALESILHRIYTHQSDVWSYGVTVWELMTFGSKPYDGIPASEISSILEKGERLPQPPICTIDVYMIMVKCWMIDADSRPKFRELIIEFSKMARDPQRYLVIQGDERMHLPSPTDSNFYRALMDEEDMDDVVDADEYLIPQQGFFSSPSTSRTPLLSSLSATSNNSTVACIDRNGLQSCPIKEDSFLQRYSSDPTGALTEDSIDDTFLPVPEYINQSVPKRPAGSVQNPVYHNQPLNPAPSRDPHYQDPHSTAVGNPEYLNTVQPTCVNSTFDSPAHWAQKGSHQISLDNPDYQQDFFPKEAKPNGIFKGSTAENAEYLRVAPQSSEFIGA
Chain of Mitogen-activated protein kinase kinase kinase 9 (Homo sapiens) (P80192 whole entry, looked up): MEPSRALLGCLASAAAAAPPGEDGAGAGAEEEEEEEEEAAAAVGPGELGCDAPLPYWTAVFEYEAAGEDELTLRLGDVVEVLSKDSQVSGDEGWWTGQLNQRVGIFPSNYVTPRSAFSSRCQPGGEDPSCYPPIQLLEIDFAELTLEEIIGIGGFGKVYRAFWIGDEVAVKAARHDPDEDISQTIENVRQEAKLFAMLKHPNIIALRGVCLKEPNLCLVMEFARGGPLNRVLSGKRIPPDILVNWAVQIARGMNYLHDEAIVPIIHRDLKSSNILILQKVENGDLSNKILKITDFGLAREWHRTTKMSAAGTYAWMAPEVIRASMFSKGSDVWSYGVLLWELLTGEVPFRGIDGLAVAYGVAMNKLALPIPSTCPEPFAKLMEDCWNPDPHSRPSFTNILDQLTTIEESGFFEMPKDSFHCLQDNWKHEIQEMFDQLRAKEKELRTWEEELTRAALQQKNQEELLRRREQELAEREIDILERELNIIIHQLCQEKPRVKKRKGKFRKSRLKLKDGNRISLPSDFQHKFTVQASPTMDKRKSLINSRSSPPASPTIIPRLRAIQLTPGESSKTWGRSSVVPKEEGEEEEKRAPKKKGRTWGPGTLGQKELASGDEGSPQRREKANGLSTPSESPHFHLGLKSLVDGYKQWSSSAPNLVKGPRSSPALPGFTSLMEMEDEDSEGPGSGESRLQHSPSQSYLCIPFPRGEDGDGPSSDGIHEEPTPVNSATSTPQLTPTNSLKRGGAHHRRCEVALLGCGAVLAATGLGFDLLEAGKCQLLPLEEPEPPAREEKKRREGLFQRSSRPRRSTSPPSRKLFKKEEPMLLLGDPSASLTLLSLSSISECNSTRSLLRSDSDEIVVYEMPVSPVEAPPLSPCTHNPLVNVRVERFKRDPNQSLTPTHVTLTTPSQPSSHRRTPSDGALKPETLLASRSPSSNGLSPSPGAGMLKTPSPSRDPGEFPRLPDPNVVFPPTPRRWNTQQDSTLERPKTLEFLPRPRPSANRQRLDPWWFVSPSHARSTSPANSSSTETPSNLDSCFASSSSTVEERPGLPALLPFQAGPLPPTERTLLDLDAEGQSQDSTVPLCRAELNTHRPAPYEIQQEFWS

SMILES | Activity [1] [%] | Activity [2] [%] | Activity [3] [%] | Activity [4] [%] | Activity [5] [%] | Activity [6] [%] | Activity [7] [%]
COc1cc2nc(C)nc(N[C@H](C)c3cccc(-c4cn[nH]c4)c3)c2cc1OC | 73 | 64 | 82 | 54 | 84 | 85 | 100
COc1cc2ncnc(N[C@H](C)c3cccc4ccccc34)c2cc1OC | 100 | 76 | 13 | 100 | 100 | 93 | 100
